{"source": "patent US20250082931A1", "about": "“Treating Gastric Cancer Using TTFields Combined with XELOX, FOLFOX or the Individual Constituents Thereof” (Novocure GmbH, priority 2019, published 2025)", "type_in_all_cases": "cell-based", "key": {"[1]": {"test_system": "AGS cells", "experiment": "Apoptosis analysis by Annexin V / 7AAD staining", "details": "for AnnV+ 7AAD+ cell fraction / AnnV+ 7AAD− cell fraction / AnnV− 7AAD+ cell fraction / AnnV− 7AAD− cell fraction: 72 h", "procedure": "(§1) After 72 h of treatment the media and the cells were collected, and cytotoxicity was determined by cell counts. Cells (including cells from the media) were stained for Annexin V and 7AAD for apoptosis analysis. For the testing of the clonogenic effect, cells were seeded for colonies.\n(§2) Cells were seeded on inovitro dishes and petri dishes 24 h before starting the experiments. Media containing the indicated concentration of each chemotherapy component alone or FOLFOX and control media was added to the cells and the dishes were connected to TTFields (as in SOP-BI-009) or grown in 37° C., 5% CO2 for 72 h. Each treatment included 8 repeats (8 dishes). The media was replaced every 24 h. At the end of the experiment the cells were collected, and cytotoxicity was determined by cell counts, small number of cells were seeded for colonies and the cells (including cells from the media) were stained for Annexin V and 7AAD for apoptosis analysis.\n(§3) Apoptotic effect: Average of cell fraction of each marker staining (Annexin V and 7AAD) of at least 5 dishes from each treatment was calculated in Excel software. The averages from these repeats was calculated to averages and is presented in stacked bar graph using GraphPed software."}, "[2]": {"test_system": "AGS cells", "experiment": "Clonogenic effect (colonies count)", "details": "for colonies count: 72 h"}, "[3]": {"test_system": "AGS cells", "experiment": "Overall effect (cytotoxic effect x clonogenic effect)", "details": "for overall effect (colonies count multiplying the cytotoxic effect): 72 h", "procedure": "After 6-14 days the colonies were fixed, stained and counted to determine clonogenic effect. The overall effect was calculated by multiplying the cytotoxic effect and the clonogenic effect.\nOverall effect: Each colony number was multiply in the percent of cytotoxic effect of its dish and averages and standard deviations of each treatment were calculated in Excel software. […] Significant was determine by 2-way ANOVA followed Multiple comparison using GraphPed software."}, "[4]": {"test_system": "KATO III cells", "experiment": "Apoptosis analysis by Annexin V / 7AAD staining", "procedure": "as §1, §2, §3"}, "[5]": {"details": "0.5 uM, + TTFields 150 kHz 1.0 V/cm"}, "[6]": {"details": "1.5 uM, + TTFields 150 kHz 1.0 V/cm"}, "[7]": {"details": "4.5 uM, + TTFields 150 kHz 1.0 V/cm"}, "[8]": {"details": "13.5 uM, + TTFields 150 kHz 1.0 V/cm"}, "[9]": {"details": "FOLFOX experiment, 0.5 uM, + TTFields 150 kHz 1.0 V/cm"}, "[10]": {"details": "FOLFOX experiment, 0.5 uM, no TTFields"}, "[11]": {"details": "40 uM, + TTFields 150 kHz 1.0 V/cm"}, "[12]": {"details": "1.5 nM, 72 h, + TTFields 150 kHz 1.6 V/cm"}}}
{"smiles": "O=c1[nH]cc(F)c(=O)[nH]1", "note": "[5-FU, 5-fluorouracil]", "values": [{"measurement": "elevation in percent of cells that undergo apoptosis, drug + TTFields compared to drug alone", "setting": "[1]", "value": "higher"}, {"measurement": "AnnV+ 7AAD+ cell fraction", "setting": "[1]; [5]", "value": 8.00, "unit": "%"}, {"measurement": "AnnV+ 7AAD− cell fraction", "setting": "[1]; [5]", "value": 6.38, "unit": "%"}, {"measurement": "AnnV− 7AAD+ cell fraction", "setting": "[1]; [5]", "value": 1.03, "unit": "%"}, {"measurement": "AnnV− 7AAD− cell fraction", "setting": "[1]; [5]", "value": 84.58, "unit": "%"}, {"measurement": "AnnV+ 7AAD+ cell fraction", "setting": "[1]; 0.5 uM, no TTFields", "value": 5.33, "unit": "%"}, {"measurement": "AnnV+ 7AAD− cell fraction", "setting": "[1]; 0.5 uM, no TTFields", "value": 4.48, "unit": "%"}, {"measurement": "AnnV− 7AAD+ cell fraction", "setting": "[1]; 0.5 uM, no TTFields", "value": 1.40, "unit": "%"}, {"measurement": "AnnV− 7AAD− cell fraction", "setting": "[1]; 0.5 uM, no TTFields", "value": 88.78, "unit": "%"}, {"measurement": "AnnV+ 7AAD+ cell fraction", "setting": "[1]; [6]", "value": 9.05, "unit": "%"}, {"measurement": "AnnV+ 7AAD− cell fraction", "setting": "[1]; [6]", "value": 5.90, "unit": "%"}, {"measurement": "AnnV− 7AAD+ cell fraction", "setting": "[1]; [6]", "value": 1.28, "unit": "%"}, {"measurement": "AnnV− 7AAD− cell fraction", "setting": "[1]; [6]", "value": 83.80, "unit": "%"}, {"measurement": "AnnV+ 7AAD+ cell fraction", "setting": "[1]; 1.5 uM, no TTFields", "value": 5.48, "unit": "%"}, {"measurement": "AnnV+ 7AAD− cell fraction", "setting": "[1]; 1.5 uM, no TTFields", "value": 5.03, "unit": "%"}, {"measurement": "AnnV− 7AAD+ cell fraction", "setting": "[1]; 1.5 uM, no TTFields", "value": 1.23, "unit": "%"}, {"measurement": "AnnV− 7AAD− cell fraction", "setting": "[1]; 1.5 uM, no TTFields", "value": 88.25, "unit": "%"}, {"measurement": "AnnV+ 7AAD+ cell fraction", "setting": "[1]; [7]", "value": 12.35, "unit": "%"}, {"measurement": "AnnV+ 7AAD− cell fraction", "setting": "[1]; [7]", "value": 6.78, "unit": "%"}, {"measurement": "AnnV− 7AAD+ cell fraction", "setting": "[1]; [7]", "value": 2.48, "unit": "%"}, {"measurement": "AnnV− 7AAD− cell fraction", "setting": "[1]; [7]", "value": 78.43, "unit": "%"}, {"measurement": "AnnV+ 7AAD+ cell fraction", "setting": "[1]; 4.5 uM, no TTFields", "value": 6.40, "unit": "%"}, {"measurement": "AnnV+ 7AAD− cell fraction", "setting": "[1]; 4.5 uM, no TTFields", "value": 5.08, "unit": "%"}, {"measurement": "AnnV− 7AAD+ cell fraction", "setting": "[1]; 4.5 uM, no TTFields", "value": 1.25, "unit": "%"}, {"measurement": "AnnV− 7AAD− cell fraction", "setting": "[1]; 4.5 uM, no TTFields", "value": 87.28, "unit": "%"}, {"measurement": "AnnV+ 7AAD+ cell fraction", "setting": "[1]; [8]", "value": 14.45, "unit": "%"}, {"measurement": "AnnV+ 7AAD− cell fraction", "setting": "[1]; [8]", "value": 8.70, "unit": "%"}, {"measurement": "AnnV− 7AAD+ cell fraction", "setting": "[1]; [8]", "value": 2.63, "unit": "%"}, {"measurement": "AnnV− 7AAD− cell fraction", "setting": "[1]; [8]", "value": 74.20, "unit": "%"}, {"measurement": "AnnV+ 7AAD+ cell fraction", "setting": "[1]; 13.5 uM, no TTFields", "value": 8.45, "unit": "%"}, {"measurement": "AnnV+ 7AAD− cell fraction", "setting": "[1]; 13.5 uM, no TTFields", "value": 6.20, "unit": "%"}, {"measurement": "AnnV− 7AAD+ cell fraction", "setting": "[1]; 13.5 uM, no TTFields", "value": 0.90, "unit": "%"}, {"measurement": "AnnV− 7AAD− cell fraction", "setting": "[1]; 13.5 uM, no TTFields", "value": 84.45, "unit": "%"}, {"measurement": "AnnV+ 7AAD+ cell fraction", "setting": "[1]; [9]", "value": 10.3, "unit": "%"}, {"measurement": "AnnV+ 7AAD− cell fraction", "setting": "[1]; [9]", "value": 7.3, "unit": "%"}, {"measurement": "AnnV− 7AAD+ cell fraction", "setting": "[1]; [9]", "value": 1.7, "unit": "%"}, {"measurement": "AnnV− 7AAD− cell fraction", "setting": "[1]; [9]", "value": 80.8, "unit": "%"}, {"measurement": "AnnV+ 7AAD+ cell fraction", "setting": "[1]; [10]", "value": 4.3, "unit": "%"}, {"measurement": "AnnV+ 7AAD− cell fraction", "setting": "[1]; [10]", "value": 4.8, "unit": "%"}, {"measurement": "AnnV− 7AAD+ cell fraction", "setting": "[1]; [10]", "value": 1.8, "unit": "%"}, {"measurement": "AnnV− 7AAD− cell fraction", "setting": "[1]; [10]", "value": 89.1, "unit": "%"}, {"measurement": "colonies count", "setting": "[2]; [5]", "value": 51, "unit": "% from control"}, {"measurement": "colonies count", "setting": "[2]; 0.5 uM, no TTFields", "value": 95, "unit": "% from control"}, {"measurement": "colonies count", "setting": "[2]; [6]", "value": 59, "unit": "% from control"}, {"measurement": "colonies count", "setting": "[2]; 1.5 uM, no TTFields", "value": 90, "unit": "% from control"}, {"measurement": "colonies count", "setting": "[2]; [7]", "value": 35, "unit": "% from control"}, {"measurement": "colonies count", "setting": "[2]; 4.5 uM, no TTFields", "value": 74, "unit": "% from control"}, {"measurement": "colonies count", "setting": "[2]; [8]", "value": 11, "unit": "% from control"}, {"measurement": "colonies count", "setting": "[2]; 13.5 uM, no TTFields", "value": 9, "unit": "% from control"}, {"measurement": "colonies count", "setting": "[2]; [11]", "value": 0, "unit": "% from control"}, {"measurement": "colonies count", "setting": "[2]; 40 uM, no TTFields", "value": 0, "unit": "% from control"}, {"measurement": "colonies count", "setting": "[2]; [9]", "value": 59, "unit": "% from control"}, {"measurement": "colonies count", "setting": "[2]; [10]", "value": 100, "unit": "% from control"}, {"measurement": "colonies number (clonogenic effect and overall effect), drug + TTFields compared to drug alone", "setting": "[2]; Two-way ANOVA P<0.001", "value": "significant reduction in colonies number"}, {"measurement": "interaction with TTFields based on the overall effect", "setting": "[3]", "value": "synergistic"}, {"measurement": "overall effect (colonies count multiplying the cytotoxic effect)", "setting": "[3]; [5]", "value": 36, "unit": "% from control"}, {"measurement": "overall effect (colonies count multiplying the cytotoxic effect)", "setting": "[3]; 0.5 uM, no TTFields", "value": 97, "unit": "% from control"}, {"measurement": "overall effect (colonies count multiplying the cytotoxic effect)", "setting": "[3]; [6]", "value": 30, "unit": "% from control"}, {"measurement": "overall effect (colonies count multiplying the cytotoxic effect)", "setting": "[3]; 1.5 uM, no TTFields", "value": 81, "unit": "% from control"}, {"measurement": "overall effect (colonies count multiplying the cytotoxic effect)", "setting": "[3]; [7]", "value": 11, "unit": "% from control"}, {"measurement": "overall effect (colonies count multiplying the cytotoxic effect)", "setting": "[3]; 4.5 uM, no TTFields", "value": 50, "unit": "% from control"}, {"measurement": "overall effect (colonies count multiplying the cytotoxic effect)", "setting": "[3]; [8]", "value": 2, "unit": "% from control"}, {"measurement": "overall effect (colonies count multiplying the cytotoxic effect)", "setting": "[3]; 13.5 uM, no TTFields", "value": 2, "unit": "% from control"}, {"measurement": "overall effect (colonies count multiplying the cytotoxic effect)", "setting": "[3]; [11]", "value": 0, "unit": "% from control"}, {"measurement": "overall effect (colonies count multiplying the cytotoxic effect)", "setting": "[3]; 40 uM, no TTFields", "value": 0, "unit": "% from control"}, {"measurement": "overall effect (colonies count multiplying the cytotoxic effect)", "setting": "[3]; [9]", "value": 36, "unit": "% from control"}, {"measurement": "overall effect (colonies count multiplying the cytotoxic effect)", "setting": "[3]; [10]", "value": 87, "unit": "% from control"}, {"measurement": "elevation in percent of cells that undergo apoptosis, drug + TTFields compared to drug alone", "setting": "[4]", "value": "higher"}, {"measurement": "AnnV+ 7AAD+ cell fraction", "setting": "[4]; [12]", "value": 19.12, "unit": "%"}, {"measurement": "AnnV+ 7AAD− cell fraction", "setting": "[4]; [12]", "value": 17.49, "unit": "%"}, {"measurement": "AnnV− 7AAD+ cell fraction", "setting": "[4]; [12]", "value": 2.24, "unit": "%"}, {"measurement": "AnnV− 7AAD− cell fraction", "setting": "[4]; [12]", "value": 61.16, "unit": "%"}, {"measurement": "AnnV+ 7AAD+ cell fraction", "setting": "[4]; 1.5 nM, 72 h, no TTFields", "value": 11.98, "unit": "%"}, {"measurement": "AnnV+ 7AAD− cell fraction", "setting": "[4]; 1.5 nM, 72 h, no TTFields", "value": 11.44, "unit": "%"}]}
